Each structure is given as a SMILES string.

Experiment [1] relates to atherosclerotic lesions in ApoE knockout mice. As to the kind of experiment: Aortic HE and oil red O staining, atherosclerotic lesion scores (Example 1). The format is in vivo. To be noted: for formation of arterial plaque (pathological results): medium doses, preventive treatment; for Mild n (number of animal cases with mild lesions) / Moderate n (number of animal cases with moderate lesions) / No lesion n (number of animal cases) / Severe n (number of animal cases with severe lesions): of 8 animals; for animals that had atherosclerosis (histological observation): of 8 aortas examined; for effect on atherosclerotic lesions compared with the statin group: overall, aortic pathology Example 1. An excerpt:
Methods: SPF grade C57BL/6 ApoE −/−model mice were provided by Guangdong Medical Experimental Animal Center, laboratory animal production license No. SOCK (Guangdong) 2013-0002. Laboratory animal quality certificate number: 44007200048196). Mice were half male and half female, aged 8 to 12 weeks, and 72 animals in total. After four weeks of housing in a SPF-level animal facility, animals with less body weights were disposed. A total of 64 animals were randomly divided into 8 groups, 8 in each group, fed with 10% high-fat food, and received with different treatments. Animals were observed and administered with the medicines by gavage once daily. The body weights were measured once a week and continued for 58 days. […] The test sample was dissolved in dimethyl sulfoxide solution and prepared with 30% PEG300.
After blood collection, the animals were sacrificed, and the aortic arch together with the heart and thoracic aorta were fixed with neutral formaldehyde and subject to pathological examination. The abdominal aorta was collected and quick-frozen in liquid nitrogen, and stored at −80° C.
a) HE staining: aortic arch was sliced and HE stained. The plaques were observed under optical microscope.
b) Oil red O staining: aortic arch was sliced and oil red O stained. The plaques were observed under optical microscope.

The subject of experiment [2] is atherosclerosis model induced by high-fat diet in ApoE knockout mice. Description: Ratio of atherosclerotic plaque area to total inner wall area of the aorta (En-Face, oil red; Example 2). The format is in vivo. An excerpt:
Methods: A total of 130 SPF grade C57BL/6 ApoE −/− model male mice aged 8 weeks were purchased from Charles River Laboratories (Beijing, China) (animal license number: SCXK (Beijing) 2016-0001, animal qualification certificate No.: 11400700331337). After one week of acclimatization in a SPF-grade animal facility, the animals with less weights were discarded and the rest was randomly divided into 11 groups, with 8 animals in each group. Except for the healthy control group, the rest were fed with 10% high-fat food (the first day of the high-fat diet was recorded as D1). Starting from the 8th week of the high-fat diet, each group of animals was orally given solvents or corresponding drugs, and the volume of administration was 10 ml/kg, once a day for 8 weeks. Animals were observed and administered by gavage once a day and the body weight were measured once a week for 56 days. […] The store solution of the test samples was dissolved in dimethyl sulfoxide solution and prepared with 30% PEG300.
Immediately after blood was taken from the heart, it was perfused through the left ventricle with 20 ml of normal saline. After bloodletting, the heart and aorta (from the aortic arch to the iliac artery) were isolated. The isolated artery was cut longitudinally from the aortic arch to the iliac artery, fixed in 4% paraformaldehyde for 30 minutes, synchronized with 60% isopropanol for 10 minutes, stained in 60% oil red for 30 minutes, and washed by 60% isopropanol 3 times, 5 minutes each time. Finally, the colored aorta was washed with deionized water and photographed. The proportion of the red plaque area was measured by Image Pro Plus 6.0 (Media Cybernetics, MD, US). The heart samples were fixed in 4% paraformaldehyde solution overnight and then placed in sucrose solution for dehydration. Then, it was embedded with OCT (Sakura, Japan) under a stereo microscope and made into 7 μm frozen sections. After HE staining, the slices were used for routine pathological examination. The outflow tract images were collected under an optical microscope at 4* magnification, and 4*, 10*, 20* and 40* magnification eyepieces were used for high-quality morphological observation. The detection standard referred to the histological classification standard of human atherosclerosis disease.
Evaluate the effect of different therapeutic drugs by the ratio of the area of atherosclerotic plaque to the total area of the inner wall of the aortic vessel (En-Face)
We adopted the widely accepted standard for the severity of arteriosclerosis in animal models, and analyzed the area of all plaques on the inner wall of the aorta. […] FIGS. 46A and 46B are histograms of the ratios of plaque area on the inner wall of the aorta in each treatment group. The values in FIGS. 46A and 46B are the ratios of plaques to the total area of the inner wall in each group, and the error is standard error±SEM. The statistical significance analysis is as follows: ***P<0.001 compared with the normal control group; #P<0.05 compared with the vehicle group; ##P<0.01, ###P<0.001, compared with the vehicle group through one-way ANOVA Dunnett's test; & represents P<0.05, compared with the vehicle group by t test.

Where [3] appears, read: score 0-3 per Table 8, 2 mg/kg body weight.
The mark [4] stands for this setting: score 0-3 per Table 8, 5 mg/kg body weight.

Regarding `O=C(N/N=C/c1coc2ccccc2c1=O)c1cccnc1` [Sample B], the “formation of arterial plaque (pathological results)” value in experiment [1] is given as “could delay the formation of arterial plaque in ApoE knockout mice to a certain extent”. In addition, the “Mild n (number of animal cases with mild lesions)” value in experiment [1] (1 mg/kg body weight) was 2; in experiment [1] (2 mg/kg body weight) it was 3; in experiment [1] (5 mg/kg body weight), 3. In addition, the “Moderate n (number of animal cases with moderate lesions)” value is on record as 2 in experiment [1] (1 mg/kg body weight), 1 in experiment [1] (2 mg/kg body weight) and 2 in experiment [1] (5 mg/kg body weight). Besides, the “No lesion n (number of animal cases)” value is listed as 1 in experiment [1] (1 mg/kg body weight), 4 in experiment [1] (2 mg/kg body weight) and 1 in experiment [1] (5 mg/kg body weight). Moreover, the “Severe n (number of animal cases with severe lesions)” value is reported as 3 in experiment [1] (1 mg/kg body weight), 0 in experiment [1] (2 mg/kg body weight) and 2 in experiment [1] (5 mg/kg body weight). Moreover, the “animals that had atherosclerosis (histological observation)” value in experiment [1] (1 mg/kg) is reported as 7 cases; in experiment [1] (2 mg/kg) it was 4 cases; in experiment [1] (5 mg/kg), 7 cases. The “effect on atherosclerotic lesions compared with the statin group” value in experiment [1] is “equivalent to or better than that of the statin group”. The “Scores (atherosclerotic lesion score, average of the group)” value in experiment [1] (score 0-3 per Table 8, 1 mg/kg body weight) is given as 1.88 ± 1.13; in experiment [1] (setting [3]) it was 0.62 ± 0.74; in experiment [1] (score 0-3 per Table 8, 2 mg/kg body weight, listed as sample B), “lower than the model control group”; in experiment [1] (setting [4]), 1.62 ± 1.06. For the same compound, the “Mean of Plaque Ratio (plaque area to total inner wall area of aorta)” value in experiment [2] (2 mpk PO QD 8 weeks, high-fat diet) amounted to 11.22%. In addition, in experiment [2] (different doses, Example 2), the “symptoms of atherosclerosis under therapeutic intervention (mainly plaque area ratio)” value is listed as “significantly alleviate the symptoms of atherosclerosis”.

Turning to `O=c1[nH]c2ccccc2n1C1CCN(CCCC(c2ccc(F)cc2)c2ccc(F)cc2)CC1` [Sample A], in experiment [1], the “formation of arterial plaque (pathological results)” value is listed as “could delay the formation of arterial plaque in ApoE knockout mice to a certain extent”. Also, the “Mild n (number of animal cases with mild lesions)” value in experiment [1] (2 mg/kg body weight) is recorded as 4; in experiment [1] (5 mg/kg body weight) it was 5; in experiment [1] (10 mg/kg body weight) it was 1. Moreover, the “Moderate n (number of animal cases with moderate lesions)” value in experiment [1] (2 mg/kg body weight) came out at 0; in experiment [1] (5 mg/kg body weight), 0; in experiment [1] (10 mg/kg body weight), 2. In addition, the “No lesion n (number of animal cases)” value in experiment [1] (2 mg/kg body weight) came out at 1; in experiment [1] (5 mg/kg body weight), 3; in experiment [1] (10 mg/kg body weight), 2. The “Severe n (number of animal cases with severe lesions)” value in experiment [1] (2 mg/kg body weight) came out at 3; in experiment [1] (5 mg/kg body weight), 0; in experiment [1] (10 mg/kg body weight), 3. Further, the “animals that had atherosclerosis (histological observation)” value in experiment [1] (2 mg/kg) is recorded as 7 cases; in experiment [1] (5 mg/kg), 5 cases; in experiment [1] (10 mg/kg), 6 cases. The “effect on atherosclerotic lesions compared with the statin group” value in experiment [1] was “equivalent to or better than that of the statin group”. For the same compound, the “Scores (atherosclerotic lesion score, average of the group)” value in experiment [1] (setting [3]) is recorded as 1.62 ± 1.19; in experiment [1] (setting [4]), 0.62 ± 0.52; in experiment [1] (score 0-3 per Table 8, 5 mg/kg body weight, listed as sample A), “lower than the model control group”; in experiment [1] (score 0-3 per Table 8, 10 mg/kg body weight) it was 1.75 ± 1.28.

(Values after patent US20220202801A1, “USE OF COMPOUND IN PREPARATION OF DRUG FOR TREATING ATHEROSCLEROSIS” (GenEros Biopharma Ltd., priority 2019, published 2022).)
